The record followed here is PubChem BioAssay (NCI).

What all share (test): inhibition of tumour cell growth, NCI panel, 48 h
Experiment [1] deals with CAKI-1 renal.
Experiment [2] deals with COLO 205 colon.
The test system of experiment [3] is HCC-2998 colon.
The subject of experiment [4] is KM12 colon.
The subject of experiment [5] is LOX IMVI melanoma.
Experiment [6] concerns MALME-3M melanoma.
In experiment [7] the test system is OVCAR-5 ovarian.
Experiment [8] deals with SK-MEL-28 melanoma.
For experiment [9], the system named is SR leukemia.
Experiment [10] relates to UO-31 renal.

SMILES strings stand for the structures. “And” between values parts separate entries of the source, which are not always exact repeats. Identical values can stand only once.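 Assay format: 96-well plates, 48-hour exposure. GI50: concentration for 50% inhibition of growth. TGI: concentration producing complete growth inhibition.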

Regarding `CC(C)C(CCl)NC(=O)c1cccc(C(=O)N[C@H](CCl)C(C)C)n1` (stereo in doubt), the TGI in [1], in experiment [2], in experiment [3], in experiment [4], in experiment [5] and in experiment [6] was more than 100 µM in each case. The TGI in experiment [7], in [8], in [9] and in experiment [10] was more than 100 µM in each case.

Turning to `CNCc1ccccc1-c1csc([C@@H](C)Nc2nc(C)nc3cc(OC)c(OC)cc23)c1`, the GI50 in [1] is 1.28 µM; in experiment [2] it was 1.77 µM; in experiment [3] it was 1.43 µM; in [4] it was 3.27 µM; in experiment [5], 1.57 µM; in [6] it was 1.76 µM. Moreover, the GI50 in experiment [7] is 3.29 µM; in experiment [8], 1.95 µM; in experiment [9], 0.624 µM; in [10], 1.23 µM. The TGI in [1] is 2.55 µM; in experiment [2] it was 3.59 µM; in [3], 2.9 µM; in experiment [4], 11.9 µM; in experiment [5] it was 2.98 µM; in [6], 3.28 µM. Also, the TGI in [7] is 13.6 µM; in experiment [8], 3.53 µM; in experiment [9] it was 2.38 µM; in [10] it was 2.48 µM.

On to `COc1cccc2c1C(=O)c1c(O)c3c(c(O)c1C2=O)C[C@@](O)(C(=O)CO)C[C@@H]3OC1CC(N)CC(C)O1` (stereo not given in full), for which the GI50 in experiment [1] is 0.00936 µM and 0.00812 µM and 0.0263 µM; in experiment [2] it was 0.0823 µM; in experiment [3], 0.117 µM; in experiment [4], 0.0798 µM and 0.0515 µM; in experiment [5], 0.0295 µM and 0.0231 µM; in experiment [6], 0.0491 µM. The GI50 in [7] is 0.116 µM; in [8], 0.135 µM and 0.0938 µM; in [9], 0.00548 µM and 0.02 µM; in [10] it was 0.192 µM and 0.362 µM. In addition, the TGI in experiment [1] was 0.119 µM and 0.377 µM; in [2] it was 0.389 µM and 0.351 µM; in experiment [3], 0.429 µM and 0.619 µM; in experiment [4] it was 1.31 µM and 1.89 µM; in experiment [5], 0.262 µM and 0.12 µM; in [6] it was 0.256 µM and 0.11 µM. Moreover, the TGI in [7] was 0.775 µM and 0.799 µM; in [8] it was 0.325 µM and 0.477 µM; in experiment [9] it was 0.492 µM and 0.632 µM; in experiment [10], 0.771 µM and 1.61 µM.

Consider `C=C1C(=O)OC2CC(C)C(C(CC(C)=O)OC(C)=O)=CCC12` (stereo not given), for which the TGI in experiment [1] was 8.05 µM; in experiment [2], 21.2 µM; in experiment [3], 24.1 µM; in [4], 37.2 µM; in experiment [5], 18.8 µM; in [6] it was 3.97 µM. In addition, the TGI in experiment [7] is 31.6 µM; in experiment [8] it was 24.1 µM; in [9], 15.5 µM; in experiment [10] it was 29.7 µM.

Regarding `CCOC(=O)C1=CN(C)C=C(C(=O)OCC)C1c1cc(Br)c(OCC)c(OC)c1`, the GI50 was 53 µM in experiment [1]; 68.7 µM in experiment [2]; more than 100 µM in experiment [3]; 35 µM in experiment [4]; more than 100 µM in [5]; more than 100 µM in experiment [6]. Besides, the GI50 is more than 100 µM in experiment [7], more than 100 µM in experiment [8], more than 100 µM in experiment [9] and 39.9 µM in experiment [10]. The TGI in [1], in experiment [2], in [3], in [4], in experiment [5] and in [6] was more than 100 µM throughout. In addition, the TGI in experiment [7], in experiment [8], in experiment [9] and in experiment [10] was more than 100 µM throughout.

In the case of `CC1(C)S[C@@H]2[C@H](NC(=O)C3(N)CCCCC3)C(=O)N2[C@H]1C(=O)O`, the TGI in experiment [1], in experiment [2], in experiment [3], in [4], in experiment [5] and in experiment [6] was more than 100 µM throughout. The TGI in experiment [7], in experiment [8], in experiment [9] and in [10] was more than 100 µM in each case.

For `CCN1CCN(C(=O)[C@@]2(C)CC[C@]3(C)CC[C@]4(C)C(=CC(=O)[C@@H]5[C@@]6(C)CC[C@H](OC7C[C@@H](O)[C@@H](O)C(C)O7)C(C)(C)[C@@H]6CC[C@]54C)[C@@H]3C2)CC1` (stereo not given in full), the GI50 in [1] was 7.81 µM; in [2], 9.13 µM; in [3], 2.26 µM; in experiment [4] it was 2.74 µM; in [5], 1.01 µM; in experiment [6], 0.917 µM. Also, the GI50 in [7] is 1.19 µM; in experiment [8], 1.06 µM; in [9], 1.06 µM; in [10], 0.757 µM. Besides, the TGI in experiment [1] worked out at 14.8 µM; in [2], 20.6 µM; in experiment [3] it was 8.94 µM; in experiment [4] it was 9.95 µM; in experiment [5], 2 µM; in [6] it was 2.05 µM. For the same compound, the TGI in experiment [7] was 3.12 µM; in experiment [8] it was 2.25 µM; in experiment [9], 2.57 µM; in [10] it was 1.53 µM.

Take `Nc1nn2cc(F)cnc2c1C(=O)Nc1cncc(F)c1N1CCC(C(=O)N2CCN(C3COC3)CC2)CC1`: the GI50 is 0.235 µM in experiment [1]; 0.575 µM in experiment [2]; 0.0464 µM in experiment [3]; 0.369 µM in [4]; 0.285 µM in experiment [5]; 0.608 µM in experiment [6]. The GI50 is 0.616 µM in experiment [7], 2.95 µM in [8], 0.0619 µM in experiment [9] and 0.284 µM in experiment [10]. For the same compound, the TGI is 3.16 µM in [1]; more than 100 µM in experiment [2]; more than 100 µM in experiment [3]; more than 100 µM in experiment [4]; 1.55 µM in [5]; 12 µM in experiment [6]. Moreover, the TGI in experiment [7] is more than 100 µM; in [8], more than 100 µM; in [9], 0.894 µM; in experiment [10] it was 2.62 µM.

Take `O=C(/C=C/c1ccccc1)CCC1C(=O)c2ccccc2C1=O`: the TGI in [1], in [2], in experiment [3], in experiment [4], in experiment [5] and in experiment [6] was more than 100 µM each time. Further, the TGI in experiment [7], in experiment [8], in [9] and in experiment [10] was more than 100 µM throughout.
